Reference: patent US11026972B2, “Methods for generating macrophages with enhanced cancer phagocytosis” (Georgia State University Research Foundation, Inc., priority 2016, dated 2021)

Tests used:
PEMs = experiment: Activated PEM phagocytosis toward RBCs in the presence of antibodies/inhibitors against phagocytic receptors; format: cell-based, mouse; conditions: antibodies 10 μg/mL; BLT1 5 μM; laminarin 100 μg/mL; heparin 40 U/mL
Description: FIGS. 6A-6D include data related to our investigation of possible phagocytic receptors on macrophages for phagocytosing healthy self-cells. […] PEMs, with or without (ctl.) treatment with LPS, IL-17, IL-6, or PMA, were labeled for cell surface LRP1 and CRT followed by FACS. […] Activated PEM phagocytosis toward RBCs was tested in the presence of antibodies against SR-A, Fc receptor Cd16/32 (10 μg/mL of each), inhibitors against SR-B (BLT1, 5 μM), dectin (laminarin, 100 μg/mL), complement (heparin, 40 U/mL), and antibody against Cd11b (10 μg/mL). […] Data presented in each panel represent at least three independent experiments with n≥4, if applicable.
Ex vivo macrophage phagocytosis: Mouse spleens were harvested and minced in cold HBSS followed by passing through nylon meshes. The spleen cells in suspensions were collected by centrifugation followed by washing. After lysis of RBC, splenocytes were plated in cell culture dishes in DMEM with 10% FBS and cultured for 2 h followed by removal of non-adherent cells. The adherent cells, ˜70% being macrophages as determined by anti-F4/80 staining, were tested for phagocytosis. For phagocytosis of RBC or other tissue cells, targeted cells were labeled with CFSE prior to addition into the macrophage-containing wells. Macrophages and target cells, at a ratio of 1:5-10 for RBC or 1:1-2 for other cells, were co-incubated for 30 min at 37° C. followed by gently washing. Macrophage phagocytosis of target cells was then analyzed by fluorescence microscopy and/or by FACS. […] Alternatively, the freshly isolated splenocytes in suspension were incubated with CFSE-labeled RBC and other phagocytic targets for 30 min at 37° C. Macrophage phagocytosis was then determined by FACS after labeling macrophages with anti-F4/80. To test phagocytosis of apoptotic cells, B16 cells were irradiated by UV for 150 seconds at 50 J/m^2 strength. Apoptosis was analyzed at 2, 4, 6, 8 and 18 h post UV irradiation by labeling of the cells with anti-phosphatidylserine (PS) antibody (data not shown) or FITC-conjugated annexin V (data not shown). Cells that were confirmed to be apoptotic were trypsinized, labeled with CFSE, and then co-incubated with macrophages for 30 min at 37° C. After gentle washing, phagocytosis was analyzed by fluorescence microscopy and/or FACS. To test phagocytosis of bacteria and the fungal product zymosan, AlexaFluor-conjugated E.coli strain […] (2 μl suspension, ˜2 μg) or zymosan bioparticles (1 μl suspension, ˜2 μg) (both from Invitrogen) were incubated with macrophages for 30 min followed by washing and analyses. Similar procedures were performed to test phagocytosis of macrophages from various sources. […]

[1] = system: SIRPα^−/− and CD47^−/− mice; experiment: Acute anemia and splenomegaly in mice deficient of CD47-SIRPα-mediated inhibition under inflammatory conditions; format: in vivo, mouse; conditions: SIRPα^−/− and CD47^−/− mice; zymosan 3 times every other day; IL-6 2×10 μg/kg i.v.; LPS 0.25 mg/kg i.p.; CFA s.c.
Source text: FIGS. 1A-1K illustrate our assessment of acute anemia in mice deficient of CD47-SIRPα-mediated inhibition under inflammatory conditions. FIG. 1A includes a schematic drawing of a wild type (WT) and targeted allele of SIRPα (“SIRPα”) and data related to the generation of SIRPα “knock out” (KO) mice. […] Western blot (WB) analysis confirmed the depletion of SIRPα (˜120 kDa) protein in bone marrow leukocytes from SIRPα^−/− mice. FIG. 1B includes a photograph of intestinal tissue and a line graph charting the change in body weight of mice in which colitis had been induced by treatment with 1% or 2% DSS. […] FIGS. 1C and 1D include data related to acute anemia and splenomegaly developed in SIRPα^−/− mice with colitis. WT mice and SIRPα^−/− mice treated with DSS (2% DSS for WT and 1% DSS for SIRPα^−/−) for 10 days were analyzed for the presence of […] (FIG. 1C) and the content of hemoglobin in peripheral blood (FIG. 1D). FIG. 1E includes a panel of photomicrographs in which hematoxylin and eosin (H&E) was used to stain sections of spleens from WT and SIRPα^−/− mice treated with 2% and 1% DSS for 10 days. The bar graph of FIG. 1E illustrates the hemoglobin content in the spleens of WT and SIRPα^−/− mice treated with water or DSS. FIG. 1F is a pair of line graphs showing the time course over which anemia developed in SIRPα^−/− mice when colitis was induced with DSS and the levels of IL-17 in the serum over that same period of time. FIG. 1G is a diagram showing that IL-17 neutralization ameliorates anemia and splenomegaly in SIRPα^−/− mice with colitis. An anti-IL-17 antibody (10 μg, i.v.) was given on days 6 and 8 (arrows) during DSS-induction of colitis. FIG. 1H is a diagram showing that IL-17-containing colitic serum induces acute anemia in SIRPα^−/− mice. Serum samples collected from healthy (Ctl.) and colitic WT mice (2% DSS, 10 d) were administered to healthy SIRPα^−/− mice (i.v., 3×, arrows) with or without an anti-IL-17 antibody. FIGS. 1I and 1J are illustrative graphs showing that IL-17 directly induces acute anemia and splenomegaly in SIRPα^−/− mice and Cd47^−/− mice. Healthy mice were given recombinant IL-17 (10 μg/kg, i.v.) on days 1 and 3 (arrows, FIG. 1J); anemia and splenomegaly were analyzed on day 5 (FIG. 1I) or in a time course manner (FIG. 1J). FIG. 1K includes diagrams showing that acute anemia and splenomegaly in SIRPα^−/− and Cd47^−/− mice under zymosan-peritonitis (3×, every other day), IL-6 administration ([…], i.v.), LPS (0.25 mg/kg, i.p.), and CFA (1×, s.c.) administrations. Error bars are ±SEM **P<0.01, ***P<0.001 vs. control or the beginning time point. Data presented in each panel represent at least three independent experiments with n≥4, if applicable.
Hemoglobin assay: To assay blood hemoglobin, 10 μl of whole blood were obtained from the tail vein followed by lysis in 1 ml distilled water. After centrifugation (13,000 rpm, 30 min), the hemoglobin-containing supernatants were collected and measured for the optical density at the wavelength of 540 nm.
Animal inflammation models: To induce peritonitis, mice (6-8 wk, 20-22 g) were intraperitoneally injected with 0.5 mg zymosan A (Sigma) in 0.5 ml sterile PBS followed by euthanasia at 2, 4, 6 and 8 hours. […] The colitic condition was then assessed by observing diarrhea, measuring body weight loss, increases of inflammatory cytokines, the shortage of the large intestine and intestinal tissue analyses (after euthanasia). […]

[2] = system: splenic macrophages, PEMs and BMDMs; experiment: Ex vivo macrophage phagocytosis toward RBCs and other self-cells after activation; format: cell-based, mouse; conditions: PEM; lack of the CD47-SIRPα-mediated inhibition
Description: FIGS. 3A-3H include data related to our experiments assaying macrophage phagocytosis ex vivo. FIGS. 3A and 3B show macrophage phagocytosis of RBCs. Freshly isolated splenic macrophages (MØ) and peritoneal macrophages (PEM) and in vitro-derived BMDM (bone marrow-derived macrophages) were tested for phagocytosis toward CFSE-labeled Cd47^+ or Cd47^− RBCs. […] FIGS. 3F and 3G illustrate LPS and IL-17-activated PEM phagocytosis toward splenocytes (FIG. 3F), B16, and EL4 (FIG. 3G). Error bars are ±SEM. **P<0.01, ***P<0.001 vs. no treatment controls. […] PEM lavaged without (ctl.) or with Brewer thioglycollate (3%, i.p.) elicitation was tested. Error bars are ±SEM. ***P<0.001 vs. control PEM. Data presented in each panel represent at least three independent experiments with n≥4, if applicable.
FIGS. 4A-4E include data related to our experiments on macrophage phagocytic plasticity. FIG. 4A is a panel of illustrative line graphs showing that IL-10 inhibits macrophage phagocytosis toward “self.” PEMs were treated with LPS and activating cytokines along with various concentrations of IL-10 before testing their ability to phagocytose RBCs. FIG. 4B illustrates the phagocytic plasticity of WT red pulp macrophages. […] Treatments of cultured macrophages with LPS and IL-17 re-elicited their phagocytosis toward RBCs. […] Error bars are ±SEM. ***P<0.001 vs. freshly isolated splenic macrophages. FIG. 4D includes microscopic images of RBC phagocytosis by LPS- and IL-17-treated splenic macrophages. […] WT PEMs treated with LPS or IL-17 were further treated with Cd47^+ RBCs or Cd47-AP (10 min, 37° C.) followed by cell lysis, SIRPα immunoprecipitation, and WB detection of SIRPα phosphorylation (SIRPα^pY) and SHP-1 association. Data presented in each panel represent at least three independent experiments with n≥4, if applicable.
Ex vivo macrophage phagocytosis: Mouse spleens were harvested and minced in cold HBSS followed by passing through nylon meshes. The spleen cells in suspensions were collected by centrifugation followed by washing. After lysis of RBC, splenocytes were plated in cell culture dishes in DMEM with 10% FBS and cultured for 2 h followed by removal of non-adherent cells. The adherent cells, ˜70% being macrophages as determined by anti-F4/80 staining, were tested for phagocytosis. For phagocytosis of RBC or other tissue cells, targeted cells were labeled with CFSE prior to addition into the macrophage-containing wells. Macrophages and target cells, at a ratio of 1:5-10 for RBC or 1:1-2 for other cells, were co-incubated for 30 min at 37° C. followed by gently washing. Macrophage phagocytosis of target cells was then analyzed by fluorescence microscopy and/or by FACS. To better recognize macrophages, macrophages in wells were labeled with an anti-F4/80 or an anti-CD11b antibody. Alternatively, the freshly isolated splenocytes in suspension were incubated with CFSE-labeled RBC and other phagocytic targets for 30 min at 37° C. Macrophage phagocytosis was then determined by FACS after labeling macrophages with anti-F4/80. To test phagocytosis of apoptotic cells, B16 cells were irradiated by UV for 150 seconds at 50 J/m^2 strength. Apoptosis was analyzed at 2, 4, 6, 8 and 18 h post UV irradiation by labeling of the cells with anti-phosphatidylserine (PS) antibody (data not shown) or FITC-conjugated annexin V (data not shown). Cells that were confirmed to be apoptotic were trypsinized, labeled with CFSE, and then co-incubated with macrophages for 30 min at 37° C. After gentle washing, phagocytosis was analyzed by fluorescence microscopy and/or FACS. To test phagocytosis of bacteria and the fungal product zymosan, AlexaFluor-conjugated E.coli strain […] (2 μl suspension, ˜2 μg) or zymosan bioparticles (1 μl suspension, ˜2 μg) (both from Invitrogen) were incubated with macrophages for 30 min followed by washing and analyses. Similar procedures were performed to test phagocytosis of macrophages from various sources. […]

Molecule | LPS-induced PEM phagocytosis toward RBCs (PEMs) | anemia and splenomegaly [1] | ability to induce macrophage phagocytosis toward self [2]
CCCCCCC1CCCC1=NNC(N)=S (centres unmarked) [BLT1] | failed to affect |  | 
heparin | failed to affect |  | 
laminarin | failed to affect |  | 
IL-6: recombinant murine cytokine, PeproTech (protein, UniProt P08505 25-211, looked up) Interleukin-6: FPTSQVRRGDFTEDTTPNRPVYTTSQVGGLITHVLWEIVEMRKELCNGNSDCMNNDDALAENNLKLPEIQRNDGCYQTGYNQEICLLKISSGLLEYHSYLEYMKNNLKDNKKDKARVLQRDTETLIHIFNQEVKDLHKIVLPTPISNALLTDKLESQKEWLRTKTIQFILKSLEEFLKVTLRSTRQT |  | induced the same result | have the ability to induce macrophage phagocytosis toward self
